In patent publication US20100063049A1, “2-CARBOCYCLOAMINO-4-IMIDAZOLYLPYRIMIDINES AS AGENTS FOR THE INHBITION OF CELL PROLIFERATION” (priority 2006, published 2010):

Target: T1, CDK2/Cyclin E (Homo sapiens, UniProt P24941)
T1 construct: The open reading frames of CDK2 and Cyclin E were isolated by reverse transcriptase-PCR; made in house; host or cells: Spodoptera frugiperda SF21 insect cells (baculovirus co-infection); GST-Rb substrate made in E. coli BL21(DE3) pLysS
Assay: in vitro kinase assay (Scintillation Proximity Assay), incorporation of [γ-33-P]-ATP into GST-Rb
Assay type: biochemical
Details: CDK2/Cyclin E partially-purified enzyme, GST-Rb substrate, 0.2 μM ATP, room temperature 60 mins; read-out: CDK2 inhibitory activity IC50
Method: The compounds were tested in an in vitro kinase assay in 96 well format using Scintillation Proximity Assay (SPA—obtained from Amersham) for measuring incorporation of [γ-33-P]-Adenosine Triphosphate into a test substrate (GST-Retinoblastoma protein; GST-Rb). In each well was placed the compound to be tested (diluted in DMSO and water to correct concentrations) and in control wells either roscovitine as an inhibitor control or DMSO as a positive control. […]
The plates were sealed with Topseal-S plate sealers, left for two hrs then spun at 2500 rpm, 1124×g., for 5 mins. The plates were read on a Topcount for 30 seconds per well. […]
E. coli paste was resuspended in 10 ml/g of NETN buffer (50 mM Tris pH 7.5, 120 mM NaCl, 1 mM EDTA, 0.5% v/v NP-40, 1 mM PMSF, 1 ug/ml leupeptin, 1 ug/ml aprotinin and 1 ug/ml pepstatin) and sonicated for 2×45 seconds per 100 ml homogenate. […] The final product was analysed by Sodium Dodeca Sulfate (SDS) PAGE (Polyacrylamide gel) using 8-16% Tris-Glycine gels (Novex, San Diego, USA).
The open reading frames of CDK2 and Cyclin E were isolated by reverse transcriptase-PCR using HeLa cell and activated T cell mRNA as a template and cloned into the insect expression vector pVL1393 (obtained from Invitrogen 1995 catalogue number: V1392-20). […]

Structure (SMILES): Cc1ncc(-c2ccnc(N[C@H]3CC[C@H](N(C)C)CC3)n2)n1C(C)C [Example 4, trans-N′,N′-Dimethyl-N-[4-(2-methyl-3-propan-2-yl-imidazol-4-yl)pyrimidin-2-yl]cyclohexane-1,4-diamine]
- IC50: 159 nM
